Marks after values point to notes of the source that are not given here.
Legend:
Type in all cases: in vivo
Conditions in all cases: 100 = 100% disease control
Septoria tritici = assay: Test C: wheat leaf blotch, preventive spray on wheat seedlings, visual disease rating
Source text: (§1) General protocol for preparing test suspensions for Tests A-E: the test compounds were first dissolved in acetone in an amount equal to 11% of the final volume and then suspended at the desired concentration (in ppm) in acetone and purified water (50/50 mix by volume) containing 250 ppm of the surfactant Trem® 014 (polyhydric alcohol esters). The resulting test suspensions were then used in Tests A-E. Spraying a 200 ppm test suspension to the point of run-off on the test plants was the equivalent of a rate of 800 g/ha.
(§2) The test suspension was sprayed to the point of run-off on wheat seedlings. The following day the seedlings were inoculated with a spore suspension of Septoria tritici (the causal agent of wheat leaf blotch) and incubated in a saturated atmosphere at 24° C. for 48 h, and then moved to a growth chamber at 20° C. for 19 days, after which time disease ratings were visually made.
(§3) Results for Tests A-E are given in Table A. In the Table, a rating of 100 indicates 100% disease control and a rating of 0 indicates no disease control (relative to the controls). A dash (-) indicates no test results. All results are for 200 ppm except where followed by an “*”, which indicates 40 ppm or “**”, which indicates 50 ppm.

[1] = system: Puccinia recondita f sp. tritici; assay: Test B: wheat leaf rust, preventive spray on wheat seedlings, visual disease rating
Source text: as §1
as §2, with “Puccinia recondita f sp.” for “Septoria”, “rust)” for “blotch)”, “20°” for “24°”, “24” for “48”, “7” for “19”
as §3

Septoria nodorum = assay: Test D: wheat glume blotch, preventive spray on wheat seedlings, visual disease rating
Source text: as §1
as §2, with “nodorum” for “tritici”, “glume” for “leaf”, “20°” for “24°”, “7” for “19”
as §3

[2] = system: Erysiphe graminis f. sp. tritici; assay: Test A: wheat powdery mildew, preventive spray on wheat seedlings, visual disease rating
Source text: as §1
The test suspension was sprayed to the point of run-off on wheat seedlings. The following day the seedlings were inoculated with a spore dust of Erysiphe graminis f. sp. tritici, (the causal agent of wheat powdery mildew) and incubated in a growth chamber at 20° C. for 8 days, after which time disease ratings were visually made.
as §3

Botrytis cinerea = assay: Test E: tomato botrytis, preventive spray on tomato seedlings, visual disease rating
Source text: as §1
The test suspension was sprayed to the point of run-off on tomato seedlings. The following day the seedlings were inoculated with a spore suspension of Botrytis cinerea (the causal agent of tomato botrytis) and incubated in saturated atmosphere at 20° C. for 48 h, and then moved to a growth chamber at 27° C. for 3 additional days, after which time disease ratings were visually made.
as §3

SMILES	Test C disease control rating (Septoria tritici; 200 ppm) [%]	Test B disease control rating ([1]; 200 ppm) [%]	Test D disease control rating (Septoria nodorum; 200 ppm) [%]	Test A disease control rating ([2]; 200 ppm) [%]	Test E disease control rating (Botrytis cinerea; 200 ppm) [%]	other results
COC(=O)NCc1cc(-n2ncc(-c3ccc(C)cc3OC)n2)ccc1C [Cmpd 7]	100	100	100	100	26	
COC(=O)NCc1cc(-n2ccc(-c3ccc(OC)cc3F)n2)ccc1C [Cmpd 9]	99	100	100	100	87	
COC(=O)NCc1cc(-n2ccc(-c3ccc(C)cc3OC)n2)ccc1C [Cmpd 12]	97	100	100	100	95	
COC(=O)NCc1cc(-n2ccc(-c3ccc(OC)cc3Cl)n2)ccc1C [Cmpd 13]	100	100	100	100	99	
COC(=O)NCc1cc(-n2ccc(-c3ccc(F)cc3OC)n2)ccc1C [Cmpd 14]	100	100	100	100	97	
COC(=O)NCc1cc(-c2ccn(-c3ccc(SC)cc3OC)n2)ccc1C [Cmpd 15]	77	100	100	96	64	
COC(=O)NCc1cc(-c2ccn(-c3ccc(OC)cc3SC)n2)ccc1C [Cmpd 16]	85	100	100	97	97	
COC(=O)NCc1cc(-c2ccn(-c3ccc(OC)cc3F)n2)ccc1C [Cmpd 19]	100	100		100	37	
COC(=O)NCc1cc(-c2ccn(-c3ccc(OC)cc3C#N)n2)ccc1C [Cmpd 21]	98	100	100	96	66	
COC(=O)NCc1cc(-c2ccn(-c3ccc(OC)cc3[N+](=O)[O-])n2)ccc1C [Cmpd 22]	100	100	100	0	85	
CCc1cc(OC)ccc1-n1ccc(-c2ccc(C)c(CNC(=O)OC)c2)n1 [Cmpd 26]	100	100	100	99	31	
COC(=O)NCc1cc(-c2ccn(-c3ccc(F)cc3OC)n2)ccc1C [Cmpd 27]	100	100	100	100	54	
COC(=O)NCc1cc(-c2ccn(-c3ccc(C)cc3OC)n2)ccc1C [Cmpd 29]	100	100	100	99	63	
COC(=O)NCc1cc(-n2ccc(-c3ccc(F)cc3F)n2)ccc1C [Cmpd 30]	100	100	100	100	0	
COC(=O)NCc1cc(-c2ccn(-c3ccc(OC)cc3OCC#N)n2)ccc1C [Cmpd 32]	100	100	100	94	66	
COC(=O)NCc1cc(-c2ccn(-c3ccc(Cl)cc3O)n2)ccc1C [Cmpd 33]	2	94	100	0	0	
C#CCOc1cc(Cl)ccc1-n1ccc(-c2ccc(C)c(CNC(=O)OC)c2)n1 [Cmpd 34]	100	100	100	100	91	
COC(=O)NCc1cc(-c2ccn(-c3ccc(Cl)cc3OCC#N)n2)ccc1C [Cmpd 35]	100	100	100	92	41	
COC(=O)NCc1cc(-n2ccc(-c3ccc(Cl)cc3C)n2)ccc1C [Cmpd 36]						Test C disease control rating (Septoria tritici; 40 ppm (*)): 100* %; Test B disease control rating ([1]; 40 ppm (*)): 100* %; Test D disease control rating (Septoria nodorum; 40 ppm (*)): 100* %; Test A disease control rating ([2]; 40 ppm (*)): 100* %; Test E disease control rating (Botrytis cinerea; 40 ppm (*)): 74* %
COC(=O)NCc1cc(-n2ccc(-c3ccc(F)cc3C)n2)ccc1C [Cmpd 37]						Test C disease control rating (Septoria tritici; 40 ppm (*)): 100* %; Test B disease control rating ([1]; 40 ppm (*)): 100* %; Test D disease control rating (Septoria nodorum; 40 ppm (*)): 100* %; Test A disease control rating ([2]; 40 ppm (*)): 95* %; Test E disease control rating (Botrytis cinerea; 40 ppm (*)): 77* %
COC(=O)NCc1cc(-n2ccc(-c3ccc(Cl)cc3F)n2)ccc1C [Cmpd 39]						Test C disease control rating (Septoria tritici; 40 ppm (*)): 100* %; Test B disease control rating ([1]; 40 ppm (*)): 100* %; Test D disease control rating (Septoria nodorum; 40 ppm (*)): 100* %; Test A disease control rating ([2]; 40 ppm (*)): 99* %; Test E disease control rating (Botrytis cinerea; 40 ppm (*)): 53* %
COC(=O)NCc1cc(-n2ccc(-c3ccc(F)cc3Cl)n2)ccc1C [Cmpd 40]						Test C disease control rating (Septoria tritici; 40 ppm (*)): 100* %; Test B disease control rating ([1]; 40 ppm (*)): 100* %; Test D disease control rating (Septoria nodorum; 40 ppm (*)): 100* %; Test A disease control rating ([2]; 40 ppm (*)): 100* %; Test E disease control rating (Botrytis cinerea; 40 ppm (*)): 80* %
COC(=O)NCc1cc(-n2ccc(-c3ccc(C)cc3Cl)n2)ccc1C [Cmpd 41]						Test C disease control rating (Septoria tritici; 40 ppm (*)): 100* %; Test B disease control rating ([1]; 40 ppm (*)): 100* %; Test D disease control rating (Septoria nodorum; 40 ppm (*)): 100* %; Test A disease control rating ([2]; 40 ppm (*)): 100* %; Test E disease control rating (Botrytis cinerea; 40 ppm (*)): 36* %
COC(=O)NCc1cc(-n2ccc(-c3ccc(C)cc3F)n2)ccc1C [Cmpd 42]						Test C disease control rating (Septoria tritici; 40 ppm (*)): 99* %; Test B disease control rating ([1]; 40 ppm (*)): 100* %; Test D disease control rating (Septoria nodorum; 40 ppm (*)): 100* %; Test A disease control rating ([2]; 40 ppm (*)): 100* %; Test E disease control rating (Botrytis cinerea; 40 ppm (*)): 65* %
COC(=O)NCc1cc(-n2ccc(-c3ccc(C)nc3Cl)n2)ccc1C [Cmpd 43]						Test C disease control rating (Septoria tritici; 40 ppm (*)): 87* %; Test B disease control rating ([1]; 40 ppm (*)): 100* %; Test D disease control rating (Septoria nodorum; 40 ppm (*)): 100* %; Test A disease control rating ([2]; 40 ppm (*)): 98* %; Test E disease control rating (Botrytis cinerea; 40 ppm (*)): 62* %
COC(=O)NCc1cc(-n2ncc(-c3ccc(OC)cc3I)[n+]2[O-])ccc1C [Compound 94]						pest or weed control at 40 ppm ([1]; 192 h, 40 ppm (*)): 100%; pest or weed control at 40 ppm (Septoria nodorum; Parastagonospora nodorum, 216 h, 40 ppm (*)): 100%; pest or weed control at 40 ppm ([2]; Blumeria graminis, 192 h, 40 ppm (*)): 98%; pest or weed control at 40 ppm (Botrytis cinerea; Botrytis cinerea, 120 h, 40 ppm (*)): 11%
COC(=O)NCc1cc(-n2ncc(-c3ccc(C)cc3C)n2)ccc1C [Compound 97]						Test B disease control rating ([1]; 40 ppm (*)): 100* %; Test D disease control rating (Septoria nodorum; 40 ppm (*)): 100* %; Test A disease control rating ([2]; 40 ppm (*)): 99* %; Test E disease control rating (Botrytis cinerea; 40 ppm (*)): 43* %

From patent US20150266850A1 (E.I.DU PONT DE NEMOURS AND COMPANY, priority 2012, published 2015)
